In patent US20050101595A1, “N-containing cycloalkyl-substituted amino-thiazole derivatives and pharmaceutical compositions for inhibiting cell proliferation and methods for their use” (PFIZER INC., priority 2003, published 2005):
Counter-ions that a name gives are not always drawn. Like-named read-outs stand apart in the source and are kept apart here.

Legend:
CDK2/Cyclin A = CDK2/Cyclin A (Homo sapiens, UniProt P24941); assay: Inhibition of CDK2/Cyclin A Retinoblastoma Kinase Activity; assay type: biochemical; conditions: for CDK2 % Inhibition at 0.03 μM: 0.03 μM compound; for Ki: apparent Ki, CDK2/proteolyzed cyclin A, Rb fragment substrate, 25 μM ATP
How it was run: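 Percent inhibition is calculated against DMSO-only wells after subtracting no-enzyme background. The enzyme is human CDK2 complexed with proteolyzed cyclin A, used at 10 nM or 19 nM on an Rb fragment with 25 μM [32/33P]ATP, at pH 7.4 and 30° C.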

HCT-116 cell line = assay: Inhibition of cell growth, tetrazolium salt (MTT) assay; assay type: cell-based; conditions: for HCT-116 % Inhibition at 0.1 μM: 0.1 μM compound; for HCT-116 % Inhibition at 0.25 μM: 0.25 μM compound; for IC50: Homo sapiens, HCT-116, 120 h, MTT, three to five days, read-out: HCT-116 IC50
How it was run: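 Growth inhibition by MTT reduction at 540 nm (0.2 mg/mL, 4 h at 37° C, formazan dissolved in DMSO), normalized to cells given only 0.5% v/v DMSO. HCT-116 cultures in McCoy's 5A were dosed 4 h post-plating and kept three to five days at 37° C, 5% CO2.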

[1] = molecular target: human CDK4 and genetically truncated (1-264) cyclin D3 (Homo sapiens, UniProt P11802); assay: Inhibition of CDK4/Cyclin D Retinoblastoma Kinase Activity; assay type: biochemical; conditions: for CDK4 % Inhibition at 0.03 μM: 0.03 μM compound; for Ki: apparent Ki, CDK4/truncated cyclin D3, Rb fragment substrate, 25 μM ATP
human CDK4 and genetically truncated (1-264) cyclin D3, sequence (P11802 whole entry, the tested form may be a part): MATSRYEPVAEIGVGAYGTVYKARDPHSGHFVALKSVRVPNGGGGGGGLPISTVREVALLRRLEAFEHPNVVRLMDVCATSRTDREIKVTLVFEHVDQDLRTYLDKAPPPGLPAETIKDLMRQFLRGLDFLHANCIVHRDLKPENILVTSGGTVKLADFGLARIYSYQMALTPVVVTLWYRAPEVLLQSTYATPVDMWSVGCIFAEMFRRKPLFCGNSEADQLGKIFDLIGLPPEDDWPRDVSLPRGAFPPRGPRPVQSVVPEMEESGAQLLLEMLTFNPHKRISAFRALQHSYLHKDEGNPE
human CDK4 and genetically truncated (1-264) cyclin D3, sequence (P30281 1-264 partner): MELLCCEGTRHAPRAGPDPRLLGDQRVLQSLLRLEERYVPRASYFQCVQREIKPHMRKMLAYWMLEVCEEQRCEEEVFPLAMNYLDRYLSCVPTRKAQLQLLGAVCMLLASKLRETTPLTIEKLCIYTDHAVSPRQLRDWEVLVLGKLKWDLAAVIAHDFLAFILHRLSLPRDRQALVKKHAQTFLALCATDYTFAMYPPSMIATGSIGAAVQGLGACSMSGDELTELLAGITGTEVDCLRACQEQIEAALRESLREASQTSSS
How it was run: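 Apparent Ki values derive from fitting activity at varied inhibitor concentrations to a competitive (or competitive tight-binding) model. Kinase reactions used 5 nM CDK4/cyclin D3(1-264), Rb fragment substrate and 25 μM ATP. Incubation ran 20 min at 30 °C, extended to 60 min under linear conditions for tight binders.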

SMILES | Ki (CDK2/Cyclin A) [nM] | IC50 (HCT-116 cell line; first HCT-116 column (c4)) [nM] | IC50 (HCT-116 cell line; second HCT-116 column (c5)) [nM] | Ki [1] [nM] | also measured
Cn1nc(-c2ccc(S(=O)(=O)N3CCC(Nc4nc(N)c(C(=O)c5c(F)cccc5F)s4)CC3)s2)cc1C(F)(F)F [Example P44] |  |  |  |  | CDK2 % Inhibition at 0.03 μM (CDK2/Cyclin A; Table 3): 55%; HCT-116 % Inhibition at 0.1 μM (HCT-116 cell line; Table 3): 0%; HCT-116 % Inhibition at 0.25 μM (HCT-116 cell line; Table 3): 25%; CDK4 % Inhibition at 0.03 μM ([1]; Table 3): 62%
Cn1cnc(S(=O)(=O)N2CCC(Nc3nc(N)c(C(=O)c4c(F)cccc4F)s3)CC2)c1 [Example F2, 1-{4-Amino-2-[1-(i-methyl-1H-imidazole-4-sulfonyl)-piperidin-4-ylamino]-thiazol-5-yl}-1-(2,6-difluoro-phenyl)-methanone] | < 5 | 1300 | 4000 | 1.9 | 
CC(C)=CC(=O)N1CCC(Nc2nc(N)c(C(=O)c3c(F)cccc3F)s2)CC1 [Example Q44] |  |  |  |  | CDK2 % Inhibition at 0.03 μM (CDK2/Cyclin A; Table 4): −19%; HCT-116 % Inhibition at 0.1 μM (HCT-116 cell line; Table 4): 0%; HCT-116 % Inhibition at 0.25 μM (HCT-116 cell line; Table 4): 30%; CDK4 % Inhibition at 0.03 μM ([1]; Table 4): 17%
Nc1nc(NC2CCN(S(=O)(=O)c3ccc4ccccc4c3)CC2)sc1C(=O)c1c(F)cccc1F [Example P3] |  |  |  |  | CDK2 % Inhibition at 0.03 μM (CDK2/Cyclin A; Table 3): 64%; HCT-116 % Inhibition at 0.1 μM (HCT-116 cell line; Table 3): 17%; HCT-116 % Inhibition at 0.25 μM (HCT-116 cell line; Table 3): 23%; CDK4 % Inhibition at 0.03 μM ([1]; Table 3): 65%
COC(=O)c1sccc1S(=O)(=O)N1CCC(Nc2nc(N)c(C(=O)c3c(F)cccc3F)s2)CC1 [Example P63] |  |  |  |  | CDK2 % Inhibition at 0.03 μM (CDK2/Cyclin A; Table 3): 71%; HCT-116 % Inhibition at 0.1 μM (HCT-116 cell line; Table 3): 23%; HCT-116 % Inhibition at 0.25 μM (HCT-116 cell line; Table 3): 40%; CDK4 % Inhibition at 0.03 μM ([1]; Table 3): 66%
COCCNCCS(=O)(=O)N1CCC(Nc2nc(N)c(C(=O)c3c(F)cccc3F)s2)CC1 [Example K25, (4-Amino-2-{1-[2-(2-methoxy-ethylamino}-ethanesulfonyl]-piperidin-4-ylamino}-thiazol-5-yl)-(2,6-difluoro-phenyl)-methanone Trifluoroacetic Acid Salt.] | 4.4 | 880 | 2600 | 1.4 | 
Cc1cc(C)cc(CC(=O)N2CCC(Nc3nc(N)c(C(=O)c4c(F)cccc4F)s3)CC2)c1 [Example D10, 1-{4-[4-Amino-5-(2,6-difluoro-benzoyl)-thiazol-2-ylamino]piperidin-1-yl}-2-(3,5-dimethyl-phenyl)-ethanone] | 85 | 60 | 200 | 62 | 
C[C@@H]1CN(c2ccc(S(=O)(=O)N3CCC(Nc4nc(N)c(C(=O)c5c(F)cccc5F)s4)CC3)cn2)C[C@H](C)N1 [Example G15, 1-(4-Amino-2-{1-[6-(3,5-dimethyl-piperizin-1-yl)-pyridin-3-sulfonyl]-piperidin-4-ylamino}-thiazol-5-yl)-1-(2,6-difluoro-phenyl)-methanone Trifluoroacetic Acid Salt] | 0.73 | 79 | > 500 | 0.28 | 
Nc1nc(NC2CCN(S(=O)(=O)c3ccc(N4CCC[C@@H]4CO)nc3)CC2)sc1C(=O)c1c(F)cccc1F [Example G13, 1-{4-Amino-2-{1-[6-(2R-hydroxymethyl-pyrrolidin-1-yl)-pyridine-3-sulfonyl]-piperidin-4-ylamino}-thiazol-5-yl)-1-(2,6-difluoro-phenyl)-methanone Trifluoroacetic Acid Salt] | < 1 | 170 | 3900 | 0.64 | 
Nc1nc(NC2CCN(C(=O)c3ccc(F)cc3)CC2)sc1C(=O)c1c(F)cccc1F [Example Q26] |  |  |  |  | CDK2 % Inhibition at 0.03 μM (CDK2/Cyclin A; Table 4): 18%; HCT-116 % Inhibition at 0.1 μM (HCT-116 cell line; Table 4): 3%; HCT-116 % Inhibition at 0.25 μM (HCT-116 cell line; Table 4): 42%; CDK4 % Inhibition at 0.03 μM ([1]; Table 4): 60%
Nc1nc(NC2CCN(S(=O)(=O)c3ccc(S)nc3)CC2)sc1C(=O)c1c(F)cccc1F [Example L4, 1-{4-Amino-2-[1-(6-mercapto-pyridine-3-sulfonyl)-piperidin-4-ylamino]-thiazol-5-yl}-1-(2,6-difluoro-phenyl)-methanone Hydrochloride.] | 0.3 | > 500 | > 500 | 1.8 | 
Nc1nc(NC2CCN(S(=O)(=O)c3cccs3)CC2)sc1C(=O)c1c(F)cccc1F [Example F51, {4-Amino-2-[1-(thiophene-2-sulfonyl)-piperidin4-ylamino]-thiazol-5-yl}-(2,6-difluoro-phenyl)-methanone] | 1.5 | 300 | 630 | 5.5 | 
CS(=O)(=O)N1CCC(Nc2nc(N)c(C(=O)c3c(F)cccc3F)s2)CC1 [Example F3, 1-[4-Amino-2-(1-methanesulfonyl-piperidin-4-ylamino)-thiazol-5-yl]-1-(2,6-difluoro-phenyl)-methanone] | 2.9 | 180 | 480 | 5.9 | 
